Tests used:
HeLa cells = assay type: cell-based, human
HeLa/crmA cells = settings: CHX 20 μg/ml, TNF-a 5 ng/ml, 24 h, trypan blue dye exclusion, mean ± SEM
Procedure: Dosage response of HeLa and HeLa/crmA cells to TNF-α treatment was tested as follows. Cells were seeded in DMEM plus 10% fetal calf serum in a 24-well plate at a density of 4×10^4 cells per well. After overnight incubation, the cells were washed twice with serum-free DMEM. Drugs were then added to a total volume of 0.2 ml of serum-free DMEM and the cells were incubated for 24 hours. Cells were then trypsinized and dead cells scored on a hemocytometer by trypan blue exclusion (Sigma, St. Louis, Mo.). At least 200 cells were scored per well. Each concentration was tested in duplicate each time.
The effect of crmA expression on TNF-induced apoptosis was tested. […] HeLa cells or HeLa/crmA cells were treated with cycloheximide (CHX) (20 μg/ml, Sigma), TNF-α (5 ng/ml, Sigma), or a combination of both drugs. […] Control HeLa and HeLa/crmA cells were tested for the ability to resist increasing amounts of TNF-α in the presence of 10 μg/ml CHX (FIG. 18). […] The dose response of crmA-expressing HeLa cells to increasing amounts of TNF-α in the presence of 10 μg/ml of CHX was tested.

Which results are given for C[C@@H]1C[C@@H]([C@H](O)CC2CC(=O)NC(=O)C2)C(=O)[C@@H](C)C1 [CHX, cycloheximide]?
% dead cells (HeLa cells): 2.9 ± 0.7%; % dead cells (HeLa/crmA cells): 3.8 ± 0.5%

Source: US20030124105A1, “PROGRAMMED CELL DEATH GENES AND PROTEINS” (priority 1993, published 2003)
